Reference: patent publication US9725465B2, “Biaryl acetamide compounds and methods of use thereof” (Ambit Biosciences Corporation, priority 2013, dated 2017)

Experiments:
[1] = target: FLT3 kinase (Homo sapiens (Human), UniProt P36888); experiment: Competition binding assay (Kd), FLT3; conditions: competition binding assay
Experimental: The liganded beads were blocked with excess biotin and washed with blocking buffer (SeaBlock (Pierce), 1% BSA, 0.05% Tween 20, 1 mM DTT) to remove unbound ligand and to reduce non-specific binding. […] Test compounds were prepared as 100× stocks in DMSO and diluted into the aqueous environment. Kds were determined using an eleven point threefold serial dilutions. DMSO or control compounds were was added to control assays lacking a test compound. […] The kinase concentration in the eluates was measured by quantitative PCR.
A selectivity score (S35) is a quantitative measure of selectivity of a compound against a panel of kinases. […] Percent of control (POC) is calculated by subtracting the signal of the control compound (POC=0) from the signal of the test compound and dividing the outcome by the signal of DMSO (POC=100) minus the signal of the control compound.

[2] = target: KIT kinase (Homo sapiens (Human), UniProt P10721); experiment: Competition binding assay (Kd), KIT; conditions: competition binding assay
In short: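 Kd derived from eleven-point threefold serial dilutions of compound competing with bead-bound ligand for kinase; bound kinase eluted and measured by quantitative PCR. Kinase supplied either as a T7 phage fusion or expressed in HEK-293 cells with a DNA tag; DMSO served as control.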

[3] = target: FLT3-ITD (Homo sapiens (Human), UniProt P36888, INS600HVDFREYEYD); experiment: pFLT3 MSD assay, Ba/F3 FLT3-ITD; type: cell-based; conditions: Ba/F3 FLT3-ITD cells, 2 hours, read-out: BaF3-FLT3-ITD pFlt3 IC50
FLT3-ITD, sequence (P36888 other isoform, or with tags, fused parts or gaps limits assumed, stated change not applied): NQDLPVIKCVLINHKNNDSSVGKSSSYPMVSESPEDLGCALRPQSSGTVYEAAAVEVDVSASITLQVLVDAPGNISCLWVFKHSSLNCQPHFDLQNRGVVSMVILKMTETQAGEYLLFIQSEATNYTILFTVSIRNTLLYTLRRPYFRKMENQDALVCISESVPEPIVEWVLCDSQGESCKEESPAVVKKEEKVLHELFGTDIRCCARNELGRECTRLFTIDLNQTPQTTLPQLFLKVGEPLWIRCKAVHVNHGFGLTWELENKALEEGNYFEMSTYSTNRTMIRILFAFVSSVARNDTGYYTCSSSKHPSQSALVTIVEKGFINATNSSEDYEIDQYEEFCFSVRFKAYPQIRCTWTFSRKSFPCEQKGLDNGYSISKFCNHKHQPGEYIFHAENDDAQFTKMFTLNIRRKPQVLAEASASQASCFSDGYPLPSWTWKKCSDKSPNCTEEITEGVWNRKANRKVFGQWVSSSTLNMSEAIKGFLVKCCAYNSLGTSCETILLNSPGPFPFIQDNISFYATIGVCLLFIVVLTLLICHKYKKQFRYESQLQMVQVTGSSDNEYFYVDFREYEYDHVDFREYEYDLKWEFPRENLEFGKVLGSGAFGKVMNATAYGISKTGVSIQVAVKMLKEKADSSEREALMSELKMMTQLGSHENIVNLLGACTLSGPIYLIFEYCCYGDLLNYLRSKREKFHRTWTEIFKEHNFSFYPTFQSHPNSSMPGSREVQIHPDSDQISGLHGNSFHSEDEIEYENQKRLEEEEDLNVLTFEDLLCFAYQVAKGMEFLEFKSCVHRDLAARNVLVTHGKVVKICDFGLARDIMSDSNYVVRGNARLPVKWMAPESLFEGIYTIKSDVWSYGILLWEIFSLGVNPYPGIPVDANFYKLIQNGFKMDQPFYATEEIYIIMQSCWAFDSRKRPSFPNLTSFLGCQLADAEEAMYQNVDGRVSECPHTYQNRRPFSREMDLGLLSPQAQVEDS

FLT3 kinase, sequence (P36888 27-993): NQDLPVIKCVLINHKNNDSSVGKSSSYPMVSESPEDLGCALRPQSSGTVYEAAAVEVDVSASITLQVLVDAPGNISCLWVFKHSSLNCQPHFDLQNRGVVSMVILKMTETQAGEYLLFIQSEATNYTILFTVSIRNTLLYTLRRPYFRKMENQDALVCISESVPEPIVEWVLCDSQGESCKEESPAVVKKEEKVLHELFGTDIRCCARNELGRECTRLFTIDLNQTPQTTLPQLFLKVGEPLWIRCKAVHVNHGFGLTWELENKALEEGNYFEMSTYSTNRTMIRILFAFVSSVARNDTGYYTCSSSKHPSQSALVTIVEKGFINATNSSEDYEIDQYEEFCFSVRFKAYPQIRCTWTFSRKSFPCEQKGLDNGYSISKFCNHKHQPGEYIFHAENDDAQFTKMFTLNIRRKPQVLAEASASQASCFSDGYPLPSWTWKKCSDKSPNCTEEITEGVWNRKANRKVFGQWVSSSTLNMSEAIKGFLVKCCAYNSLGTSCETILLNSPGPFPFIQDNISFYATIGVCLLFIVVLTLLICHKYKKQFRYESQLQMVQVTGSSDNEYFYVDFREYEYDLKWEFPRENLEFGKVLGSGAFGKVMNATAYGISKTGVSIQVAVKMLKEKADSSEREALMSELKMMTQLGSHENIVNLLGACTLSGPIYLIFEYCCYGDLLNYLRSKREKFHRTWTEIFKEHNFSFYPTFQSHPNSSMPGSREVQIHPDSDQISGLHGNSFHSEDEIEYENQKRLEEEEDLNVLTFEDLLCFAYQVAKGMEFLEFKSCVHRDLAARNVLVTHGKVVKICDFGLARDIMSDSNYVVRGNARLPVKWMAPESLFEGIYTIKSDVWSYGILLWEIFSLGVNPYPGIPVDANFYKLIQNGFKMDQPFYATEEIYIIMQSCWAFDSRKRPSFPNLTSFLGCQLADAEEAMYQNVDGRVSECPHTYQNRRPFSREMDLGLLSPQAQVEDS
KIT kinase, sequence (P10721 26-976): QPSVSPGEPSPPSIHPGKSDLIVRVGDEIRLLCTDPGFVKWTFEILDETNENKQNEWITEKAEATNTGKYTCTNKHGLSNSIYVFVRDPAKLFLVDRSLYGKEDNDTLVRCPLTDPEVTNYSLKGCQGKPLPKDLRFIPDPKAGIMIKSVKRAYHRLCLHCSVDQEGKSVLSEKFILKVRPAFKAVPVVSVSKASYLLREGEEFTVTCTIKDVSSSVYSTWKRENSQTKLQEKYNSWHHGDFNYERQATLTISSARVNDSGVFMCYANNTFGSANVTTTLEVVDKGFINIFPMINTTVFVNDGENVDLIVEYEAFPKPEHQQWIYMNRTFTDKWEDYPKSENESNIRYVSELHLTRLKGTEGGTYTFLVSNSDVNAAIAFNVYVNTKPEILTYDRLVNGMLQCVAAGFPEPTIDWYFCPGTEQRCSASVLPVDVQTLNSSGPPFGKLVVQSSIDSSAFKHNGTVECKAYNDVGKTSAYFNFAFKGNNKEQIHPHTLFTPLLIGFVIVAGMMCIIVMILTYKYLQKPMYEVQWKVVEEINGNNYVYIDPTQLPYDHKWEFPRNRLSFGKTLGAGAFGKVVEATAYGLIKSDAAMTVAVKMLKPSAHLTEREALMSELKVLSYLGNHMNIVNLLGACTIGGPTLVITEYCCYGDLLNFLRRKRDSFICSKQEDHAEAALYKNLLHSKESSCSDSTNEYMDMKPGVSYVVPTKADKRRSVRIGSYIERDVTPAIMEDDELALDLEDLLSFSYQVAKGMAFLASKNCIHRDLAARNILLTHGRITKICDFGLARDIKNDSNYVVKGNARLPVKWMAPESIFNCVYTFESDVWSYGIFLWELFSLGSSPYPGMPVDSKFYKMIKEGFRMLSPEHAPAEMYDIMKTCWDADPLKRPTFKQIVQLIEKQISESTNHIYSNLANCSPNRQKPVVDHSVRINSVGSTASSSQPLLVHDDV

Row | SMILES | Kd [1] [nM] | Kd [2] [nM] | IC50 [3] [nM]
1 | COc1cc2ncc(-c3ccc(CC(=O)Nc4cc(C(C)(C)C)n[nH]4)c(F)c3)nc2cc1OC [Example 153, N-(3-tert-butyl-1H-pyrazol-5-yl)-2-[4-(6,7-dimethoxyquinoxalin-2-yl)-2-fluoro-phenyl]acetamide] | < 5 | < 5 | < 10
2 | CN(C)C(=O)COc1cc2ncc(-c3ccc(CC(=O)Nc4cc(C5(C(F)(F)F)CC5)on4)c(F)c3)nc2cc1OCC(=O)N(C)C [Example 154, 2-[4-[6,7-bis[2-(dimethylamino)-2-oxo-ethoxy]quinoxalin-2-yl]-2-fluoro-phenyl]-N-[5-[1-(trifluoromethyl)cyclo-propyl]isoxazol-3-yl]acetamide] | < 5 | < 5 | < 10
3 | COc1ccc2ncc(-c3ccc(CC(=O)Nc4cc(C5(C(F)(F)F)CC5)on4)c(F)c3)nc2n1 [Example 155, 2-[2-fluoro-4-(6-methoxypyrido[2,3-b]pyrazin-3-yl)phenyl]-N-[5-[1-(trifluoromethyl)cyclo-propyl]isoxazol-3-yl]acetamide OR 2-[2-fluoro-4-(6-methoxypyrido[2,3-b]pyrazin-2-yl)phenyl]-N-[5-[1-(trifluoromethyl)cyclo-propyl]isoxazol-3-yl]acetamide] | < 5 | 5 to 20 | < 10
4 | COc1cc2ncc(-c3ccc(CC(=O)Nc4cc(C5(C(F)(F)F)CC5)on4)c(F)c3)nc2cc1OCc1ccccc1 [Example 156, 2-[4-(7-benzyloxy-6-methoxy-quinoxalin-2-yl)-2-fluoro-phenyl]-N-[5-[1-(trifluoromethyl)cyclo-propyl]isoxazol-3-yl]acetamide] | > 50 | > 50 | < 10
5 | COc1cc2ncc(-c3ccc(CC(=O)Nc4cc(C5(C(F)(F)F)CC5)on4)c(F)c3)nc2cc1O [Example 157, 2-[2-fluoro-4-(7-hydroxy-6-methoxy-quinoxalin-2-yl)phenyl]-N-[5-[1-(trifluoro-methyl)cyclopropyl]isoxazol-3-yl]acetamide] | < 5 | < 5 | < 10
6 | COc1cc2ncc(-c3ccc(CC(=O)Nc4cc(C5(C(F)(F)F)CC5)on4)c(F)c3)nc2cc1OCCN(C)C [Example 158, 2-[4-[7-[2-(dimethylamino)ethoxy]-6-methoxy-quinoxalin-2-yl]-2-fluoro-phenyl]-N-[5-[1-(trifluoromethyl)cyclo-propyl]isoxazol-3-yl]acetamide] | < 5 | < 5 | < 10
7 | COCCOc1cc2ncc(-c3ccc(CC(=O)Nc4cc(C(C)(C)C(F)(F)F)on4)c(F)c3)nc2cc1OC [Example 159, 2-[2-fluoro-4-[7-methoxy-6-(2-methoxy-ethoxy)quinoxalin-2-yl]phenyl]-N-[5-(2,2,2-trifluoro-1,1-dimethyl-ethyl)isoxazol-3-yl]acetamide] | < 5 | < 5 | < 10
8 | COCCOc1cc2nc(-c3ccc(CC(=O)Nc4cc(C(C)(C)C(F)(F)F)on4)c(F)c3)cnc2cc1OC [Example 160, 2-[2-fluoro-4-[6-methoxy-7-(2-methoxy-ethoxy)quinoxalin-2-yl]phenyl]-N-[5-(2,2,2-trifluoro-1,1-dimethyl-ethyl)isoxazol-3-yl]acetamide] | < 5 | < 5 | < 10
9 | COCCOc1cc2nc(-c3ccc(CC(=O)Nc4cc(C(C)(C)C)nn4C)c(F)c3)cnc2cc1OC [Example 161, N-(5-tert-butyl-2-methyl-pyrazol-3-yl)-2-[2-fluoro-4-[6-methoxy-7-(2-methoxyethoxy)quinoxalin-2-yl]phenyl]acetamide] | < 5 | < 5 | < 10
10 | COCCOc1cc2ncc(-c3ccc(CC(=O)Nc4cc(C(C)(C)C)nn4C)c(F)c3)nc2cc1OC [Example 162, N-(5-tert-butyl-2-methyl-pyrazol-3-yl)-2-[2-fluoro-4-[7-methoxy-6-(2-methoxyethoxy)quinoxalin-2-yl]phenyl]acetamide] | < 5 | < 5 | < 10
11 | COc1cc2nc(-c3ccc(CC(=O)Nc4cc(C5(C(F)(F)F)CC5)on4)c(F)c3)cnc2cc1OCc1ccccc1 [Example 163, 2-[4-(6-benzyloxy-7-methoxy-quinoxalin-2-yl)-2-fluoro-phenyl]-N-[5-[1-(trifluoromethyl)cyclo-propyl]isoxazol-3-yl]acetamide] | > 50 | > 50 | < 10
12 | COc1cc2nc(-c3ccc(CC(=O)Nc4cc(C(C)(C)C(F)(F)F)on4)c(F)c3)cnc2cc1O [Example 164, 2-[2-fluoro-4-(6-hydroxy-7-methoxy-quinoxalin-2-yl)phenyl]-N-[5-(2,2,2-trifluoro-1,1-dimethyl-ethyl)isoxazol-3-yl]acetamide] | < 5 | 5 to 20 | < 10
13 | COc1cc2nc(-c3ccc(CC(=O)Nc4cc(C(C)(C)C(F)(F)F)on4)c(F)c3)cnc2cc1OCCO [Example 165, 2-[2-fluoro-4-[6-(2-hydroxyethoxy)-7-methoxy-quinoxalin-2-yl]phenyl]-N-[5-(2,2,2-trifluoro-1,1-dimethyl-ethyl)isoxazol-3-yl]acetamide] | < 5 | < 5 | < 10
14 | COc1cc2nc(-c3ccc(CC(=O)Nc4cc(C5(C(F)(F)F)CC5)on4)c(F)c3)cnc2cc1OCCN=[N+]=[N-] [Example 166, 2-[4-[6-(2-azidoethoxy)-7-methoxy-quinoxalin-2-yl]-2-fluoro-phenyl]-N-[5-[1-(trifluoromethyl)cyclo-propyl]isoxazol-3-yl]acetamide] | < 5 | < 5 | < 10
15 | COc1cc2nc(-c3ccc(CC(=O)Nc4cc(C5(C(F)(F)F)CC5)on4)c(F)c3)cnc2cc1OCCN [Example 167, 2-[4-[6-(2-aminoethoxy)-7-methoxy-quinoxalin-2-yl]-2-fluoro-phenyl]-N-[5-[1-(trifluoromethyl)cyclo-propyl]isoxazol-3-yl]acetamide] | < 5 | < 5 | < 10
16 | COc1cc2nc(-c3ccc(CC(=O)Nc4cc(C5(C(F)(F)F)CC5)on4)c(F)c3)cnc2cc1OCCNC(C)=O [Example 168, 2-[4-[6-(2-acetamidoethoxy)-7-methoxy-quinoxalin-2-yl]-2-fluoro-phenyl]-N-[5-[1-(trifluoromethyl)cyclo-propyl]isoxazol-3-yl]acetamide] | < 5 | < 5 | < 10
17 | COc1cc2nc(C)c(-c3ccc(CC(=O)Nc4cc(C5(C(F)(F)F)CC5)on4)c(F)c3)nc2cc1OC [Example 169, 2-[4-(6,7-dimethoxy-3-methyl-quinoxalin-2-yl)-2-fluoro-phenyl]-N-[5-[1-(trifluoromethyl)cyclo-propyl]isoxazol-3-yl]acetamide] | < 5 | < 5 | < 10
18 | COc1cc2ncc(-c3ccc(CC(=O)Nc4cc(C(C)(C)C(F)(F)F)on4)c(F)c3)nc2cc1OCCO [Example 170, 2-[2-fluoro-4-[7-(2-hydroxyethoxy)-6-methoxy-quinoxalin-2-yl]phenyl]-N-[5-(2,2,2-trifluoro-1,1-dimethyl-ethyl)isoxazol-3-yl]acetamide] | < 5 | < 5 | < 10
19 | COCCOc1cc2nc(-c3ccc(CC(=O)Nc4cc(C5(C(F)(F)F)CC5)on4)c(F)c3)cnc2cc1OC [compound 77] | < 5 | < 5 | < 10
